Among the data in publication PMC12663734, “Sulfonamine-containing aurone derivatives act as inhibitors of intercellular movement of potato virus Y” (iScience, 2025) are pest or weed control and EC50 values, retold here.

Each structure is given as a SMILES string. Converted amounts (≈) assume the structure as drawn.

Assay [1] has as its system PVY. The assay is described as follows: Anti-PVY curative activity, half-leaf method. The note with it: Potato virus Y, in Chenopodium amaranticolor, 120 h, read-out: Curative effect (%).
Experimental: (§1) Owing to its non-host resistance to PVY, Chenopodium amaranticolor develops a hypersensitive response (HR) within 48–72 hours post-inoculation, producing sharply delimited chlorotic or necrotic local lesions on the inoculated leaves. The number of lesions correlates linearly and positively with virus titre, thereby serving as a quantitative indicator of viral virulence and of the inactivating efficacy of test compounds. The PVY viral extract was rubbed onto the surface of Nicotiana tabacum K326 leaves. After the characteristic symptoms of leaf wrinkling and inward curling appeared, the leaves were harvested and stored at -80°C, then purified according to previously reported methods.[50]^,[51]^,[52] Host leaves were ground to a fine powder in liquid nitrogen, followed by homogenization on ice in 0.5 M phosphate buffer. An equal volume of chloroform:n-butanol (1:1, v/v) corresponding to 10% of the total buffer volume was added, and the mixture was further homogenized on ice. After centrifugation at 10,000g for 20 minutes (4°C), the supernatant was collected as the crude PVY extract. Using 4–5-leaf-stage Chenopodium amaranticolor maintained under optimal growth conditions, a bioassay was conducted with two plants per treatment to systematically evaluate the curative, protective, and inactivating efficacy of the target compound against PVY.[53] […] Each compound was evaluated in three replicates, and the average value was calculated.
Chenopodium amaranticolor was selected as the dead spot host. Excess leaves were first trimmed off, and a uniform layer of carborundum was applied to the leaf surface. The leaves were then inoculated by rubbing with a 1200-fold diluted virus solution. After more than an hour, the carborundum on the leaf surface was washed off with running water, and a 500 μg/mL drug solution was prepared. […] The treated plants were cultivated in a greenhouse for observation, and the number of dead spots on the leaves was counted after approximately 5 days.
The test system of assay [2] is PVY. As to the kind of experiment: Anti-PVY protective activity, half-leaf method. The note with it: Potato virus Y, in Chenopodium amaranticolor, 120 h, read-out: Protective effect (%).
Experimental: as §1
In contrast to the antiviral therapeutic activity, the leaves were first treated with the drug solution. A 500 μg/mL drug solution was applied to the right side of the leaves, with the left side serving as a control and treated with a 1% Tween 80 solution. After the leaves had dried under natural conditions, they were placed in a greenhouse for 24 hours before inoculation by rubbing with carborundum, following the same procedures as those for curative activity. After treatment, the plants were maintained in a greenhouse, and the number of local lesions on the inoculated leaves was recorded approximately 5 days.
Assay [3] relates to PVY. The assay is described as follows: Anti-PVY inactivating activity, half-leaf method. The note with it: Potato virus Y, in Chenopodium amaranticolor; for pest or weed control at 500 µg/mL: 120 h; for EC50: read-out: Inactivating effect EC50.
Experimental: as §1
Two different dilutions of the virus solution (600-fold and 1200-fold) were prepared, along with a 1000 μg/mL drug solution. The drug solution was mixed with the 600-fold diluted virus solution on ice and incubated for 30 minutes. During the incubation period, the left side of the leaves was treated with a 1200-fold diluted virus solution. After the incubation was completed, the mixed system of drug and virus is inoculated on the right side of the leaf. After waiting for the infection to be completed, the carborundum on the leaf surface was washed off with running water, and the plants were then cultivated in a greenhouse. The number of dead spots on the leaves was counted after approximately 5 days.
The mark [4] stands for this setting: read-out: Inactivating effect (%), 500 μg/mL, host Chenopodium amaranticolor, average of three replicates.

`COc1ccc(/C=C2\Oc3cc(OCC(=O)NS(=O)(=O)c4ccc(Br)cc4)ccc3C2=O)c(OC)c1` [D14]: the pest or weed control at 500 µg/mL amounted to 29.8 ± 4.8% in assay [1], 37.9 ± 4.4% in assay [2] and 49.2 ± 4.2% in assay [3] (setting [4]).

For `COc1ccc(/C=C2\Oc3cc(OCC(=O)NS(=O)(=O)c4ccc(Cl)cc4)ccc3C2=O)cc1OC` [D18], the pest or weed control at 500 µg/mL in assay [1] amounted to 25.5 ± 4%; in assay [2], 38.2 ± 3%; in assay [3] (setting [4]), 56.8 ± 2.8%.

As for `COc1cc(/C=C2\Oc3cc(OCC(=O)NS(=O)(=O)c4ccc(Cl)cc4)ccc3C2=O)cc(OC)c1` [D19], the values for the pest or weed control at 500 µg/mL in assay [1], in assay [2] and in assay [3] (setting [4]) were 36.4 ± 5.6%, 35.7 ± 3.8% and 46 ± 3%, respectively.

By EC50 is commonly meant the concentration that produces a half-maximal response. With `COc1cc(/C=C2\Oc3cc(OCC(=O)NS(=O)(=O)c4ccccc4)ccc3C2=O)cc(OC)c1` [D24], the pest or weed control at 500 µg/mL in assay [1] is 50.1 ± 1.8%; in assay [2], 31 ± 3%; in assay [3] (setting [4]) it was 60 to 80%. The EC50 in assay [3] worked out at 147 ± 11 µg/mL (≈ 297 µM).

Regarding `COc1cccc(/C=C2\Oc3cc(OCC(=O)NS(=O)(=O)c4ccccc4)ccc3C2=O)c1OC` [D20], the pest or weed control at 500 µg/mL in assay [1] stood at 34.9 ± 4.9%; in assay [2], 31.3 ± 3.8%; in assay [3] (setting [4]), 64.7 ± 3.4%.

As for `CNCC(=O)N[C@@H](CO)C(=O)N[C@H]1[C@H](O)[C@@H](O)[C@H](n2ccc(N)nc2=O)O[C@@H]1C(N)=O` [NNM, ningnanmycin, reference compound], the pest or weed control at 500 µg/mL in assay [1] stood at 49 ± 3.9%; in assay [2] it was 49.1 ± 1.8%; in assay [3] (read-out: Inactivating effect (%)) it was 83.3 ± 1.2%. Moreover, the EC50 in assay [3] worked out at 54.3 ± 2.2 µg/mL (≈ 122 µM).

As to `COc1ccc(/C=C2\Oc3cc(OCC(=O)NS(=O)(=O)c4ccc(F)cc4)ccc3C2=O)cc1OC` [D26], the pest or weed control at 500 µg/mL in assay [1] was found to be 32.4 ± 1.7%; in assay [2], 40.2 ± 5%; in assay [3] (setting [4]) it was 55.3 ± 3%.

Regarding `COc1ccc(/C=C2\Oc3cc(OCC(=O)NS(=O)(=O)c4cccc(C(F)(F)F)c4)ccc3C2=O)cc1` [D36], the pest or weed control at 500 µg/mL in assay [1] worked out at 36.8 ± 2.2%; in assay [2] it was 33.9 ± 4.1%; in assay [3] (setting [4]), 55.1 ± 2.8%.

With `COc1ccc(/C=C2\Oc3cc(OCC(=O)NS(=O)(=O)c4ccc(F)cc4)ccc3C2=O)cc1` [D10], the pest or weed control at 500 µg/mL stood at 24.4 ± 1.9% in assay [1], 33.9 ± 4% in assay [2] and 43.7 ± 5% in assay [3] (setting [4]).

On to `COc1cccc(/C=C2\Oc3cc(OCC(=O)NS(=O)(=O)c4ccccc4)ccc3C2=O)c1` [D6], for which the pest or weed control at 500 µg/mL is 36.5 ± 2.9% in assay [1], 40.5 ± 0.8% in assay [2] and 58.8 ± 4.5% in assay [3] (setting [4]).

`COc1cc(/C=C2\Oc3cc(OCC(=O)NS(=O)(=O)c4ccc(F)cc4)ccc3C2=O)cc(OC)c1` [D28]: the pest or weed control at 500 µg/mL stood at 39.9 ± 2.9% in assay [1], 32.5 ± 4.4% in assay [2] and 56.4 ± 4.7% in assay [3] (setting [4]).

Consider `COc1ccc(OC)c(/C=C2\Oc3cc(OCC(=O)NS(=O)(=O)c4ccccc4)ccc3C2=O)c1` [D30], for which the pest or weed control at 500 µg/mL amounted to 33.3 ± 1.4% in assay [1], 34.2 ± 3.3% in assay [2] and 49.4 ± 3.4% in assay [3] (setting [4]).

In the case of `COc1ccc(/C=C2\Oc3cc(OCC(=O)NS(=O)(=O)c4ccc(Cl)cc4)ccc3C2=O)cc1` [D1], the pest or weed control at 500 µg/mL in assay [1] is 38.7 ± 3.7%; in assay [2] it was 44.8 ± 3.8%; in assay [3] (setting [4]), 50 ± 3.5%. Also, the EC50 in assay [3] worked out at 307 ± 13.7 µg/mL (≈ 614 µM).

Regarding `COc1cc(OC)c(/C=C2\Oc3cc(OCC(=O)NS(=O)(=O)c4ccc(F)cc4)ccc3C2=O)c(OC)c1` [D29], the results for the pest or weed control at 500 µg/mL in assay [1], in assay [2] and in assay [3] (setting [4]) were 36.7 ± 4%, 37.9 ± 2.7% and 57.1 ± 4.3%, respectively.

For the compound `COc1cccc(/C=C2\Oc3cc(OCC(=O)NS(=O)(=O)c4ccc(Br)cc4)ccc3C2=O)c1OC` [D25], the pest or weed control at 500 µg/mL in assay [1] turned out to be 35.9 ± 3.9%; in assay [2], 41.9 ± 2.6%; in assay [3] (setting [4]), 55.4 ± 2%.

`COc1cccc(/C=C2\Oc3cc(OCC(=O)NS(=O)(=O)c4ccc(F)cc4)ccc3C2=O)c1` [D11]: the pest or weed control at 500 µg/mL amounted to 40.6 ± 2% in assay [1], 42.7 ± 2.8% in assay [2] and 52.9 ± 2.8% in assay [3] (setting [4]).

`COc1ccc(/C=C2\Oc3cc(OCC(=O)NS(=O)(=O)c4cccc(C(F)(F)F)c4)ccc3C2=O)c(OC)c1` [D37]: the figures for the pest or weed control at 500 µg/mL in assay [1], in assay [2] and in assay [3] (setting [4]) were 38.2 ± 2.2%, 29.8 ± 2.7% and 43.8 ± 3.2%, respectively.

Take `COc1ccccc1/C=C1\Oc2cc(OCC(=O)NS(=O)(=O)c3ccc(Br)cc3)ccc2C1=O` [D15]: the pest or weed control at 500 µg/mL is 37.1 ± 0.9% in assay [1], 39.3 ± 2.9% in assay [2] and 53.4 ± 4.2% in assay [3] (setting [4]).

Consider `COc1ccc(/C=C2\Oc3cc(OCC(=O)NS(=O)(=O)c4ccc(F)cc4)ccc3C2=O)c(OC)c1` [D9], for which the pest or weed control at 500 µg/mL stood at 45.7 ± 3.3% in assay [1], 35.6 ± 2.5% in assay [2] and 58.1 ± 5.4% in assay [3] (setting [4]).

Regarding `COc1cccc(/C=C2\Oc3cc(OCC(=O)NS(=O)(=O)c4ccc(F)cc4)ccc3C2=O)c1OC` [D27], the pest or weed control at 500 µg/mL in assay [1] is 45.1 ± 3.7%; in assay [2], 33.9 ± 2.3%; in assay [3] (setting [4]), 60 to 80%.

In the case of `COc1ccccc1/C=C1\Oc2cc(OCC(=O)NS(=O)(=O)c3ccc(F)cc3)ccc2C1=O` [D12], the pest or weed control at 500 µg/mL in assay [1] turned out to be 34.1 ± 3.5%; in assay [2], 44.5 ± 1.5%; in assay [3] (setting [4]), 59.4 ± 3.6%.

For `COc1ccccc1/C=C1\Oc2cc(OCC(=O)NS(=O)(=O)c3ccccc3)ccc2C1=O` [D4], the values for the pest or weed control at 500 µg/mL in assay [1], in assay [2] and in assay [3] (setting [4]) were 43.1 ± 2.9%, 33.8 ± 1% and 60 to 80%, respectively.

Turning to `COc1cccc(/C=C2\Oc3cc(OCC(=O)NS(=O)(=O)c4ccc(Cl)cc4)ccc3C2=O)c1OC` [D17], the results for the pest or weed control at 500 µg/mL in assay [1], in assay [2] and in assay [3] (setting [4]) were 46.2 ± 1.4%, 40.7 ± 2.3% and 60 to 80%, respectively. Also, the EC50 in assay [3] stood at 142 ± 15.2 µg/mL (≈ 267 µM).

On to `COc1cc(OC)c(/C=C2\Oc3cc(OCC(=O)NS(=O)(=O)c4ccccc4)ccc3C2=O)c(OC)c1` [D31], for which the pest or weed control at 500 µg/mL in assay [1] was determined as 42.9 ± 2.4%; in assay [2] it was 26.3 ± 2.6%; in assay [3] (setting [4]), 57.4 ± 4.3%.

For the compound `COc1ccc(OC)c(/C=C2\Oc3cc(OCC(=O)NS(=O)(=O)c4ccc(Cl)cc4)ccc3C2=O)c1` [D33], the pest or weed control at 500 µg/mL in assay [1] was 41.2 ± 2.4%; in assay [2], 39.7 ± 2.7%; in assay [3] (setting [4]) it was 51.1 ± 3.9%.

In the case of `COc1cccc(/C=C2\Oc3cc(OCC(=O)NS(=O)(=O)c4ccc(Br)cc4)ccc3C2=O)c1` [D16], the values for the pest or weed control at 500 µg/mL in assay [1], in assay [2] and in assay [3] (setting [4]) were 29 ± 1.6%, 36.9 ± 2.4% and 42.9 ± 4.3%, respectively.

As for `COc1ccc(/C=C2\Oc3cc(OCC(=O)NS(=O)(=O)c4ccccc4)ccc3C2=O)cc1OC` [D23], the pest or weed control at 500 µg/mL was 35.3 ± 1.5% in assay [1], 33.4 ± 3.9% in assay [2] and 45.4 ± 1.1% in assay [3] (setting [4]).

Regarding `COc1cc(/C=C2\Oc3cc(OCC(=O)NS(=O)(=O)c4ccc(Br)cc4)ccc3C2=O)cc(OC)c1` [D21], the pest or weed control at 500 µg/mL was determined as 33 ± 3.9% in assay [1], 22.7 ± 1.2% in assay [2] and 50.5 ± 1.6% in assay [3] (setting [4]).

In the case of `COc1cc(OC)c(/C=C2\Oc3cc(OCC(=O)NS(=O)(=O)c4ccc(Cl)cc4)ccc3C2=O)c(OC)c1` [D32], the pest or weed control at 500 µg/mL in assay [1] stood at 43.4 ± 2.3%; in assay [2], 33.3 ± 2.6%; in assay [3] (setting [4]), 53.8 ± 3%.

Consider `COc1ccc(/C=C2\Oc3cc(OCC(=O)NS(=O)(=O)c4ccccc4)ccc3C2=O)cc1` [D2], for which the pest or weed control at 500 µg/mL in assay [1] was 41.4 ± 2.9%; in assay [2], 36.9 ± 2.7%; in assay [3] (setting [4]), 60 to 80%.

Regarding `COc1ccc(OC)c(/C=C2\Oc3cc(OCC(=O)NS(=O)(=O)c4ccc(F)cc4)ccc3C2=O)c1` [D34], the pest or weed control at 500 µg/mL in assay [1] amounted to 39.9 ± 3.7%; in assay [2] it was 36 ± 1.6%; in assay [3] (setting [4]), 46.9 ± 2.4%.

In the case of `COc1ccccc1/C=C1\Oc2cc(OCC(=O)NS(=O)(=O)c3ccc(Cl)cc3)ccc2C1=O` [D3], the pest or weed control at 500 µg/mL was 40.1 ± 3.8% in assay [1], 36.9 ± 2.9% in assay [2] and 60 to 80% in assay [3] (setting [4]).

For `COc1cccc(/C=C2\Oc3cc(OCC(=O)NS(=O)(=O)c4ccc(Cl)cc4)ccc3C2=O)c1` [D5], the pest or weed control at 500 µg/mL was 41.7 ± 3.5% in assay [1], 37.6 ± 4.8% in assay [2] and 60 to 80% in assay [3] (setting [4]).

On to `COc1ccc(/C=C2\Oc3cc(OCC(=O)NS(=O)(=O)c4ccc(Br)cc4)ccc3C2=O)cc1OC` [D22], for which the pest or weed control at 500 µg/mL is 36.2 ± 1.5% in assay [1], 28.1 ± 2.3% in assay [2] and 52 ± 3% in assay [3] (setting [4]).

As to `COc1ccc(/C=C2\Oc3cc(OCC(=O)NS(=O)(=O)c4ccc(C(F)(F)F)cc4)ccc3C2=O)c(OC)c1` [D38], the pest or weed control at 500 µg/mL amounted to 36.7 ± 3.5% in assay [1], 28 ± 4% in assay [2] and 33.3 ± 3.1% in assay [3] (setting [4]).

For `COc1ccccc1/C=C1\Oc2cc(OCC(=O)NS(=O)(=O)c3cccc(C(F)(F)F)c3)ccc2C1=O` [D35], the pest or weed control at 500 µg/mL came out at 37.6 ± 1.8% in assay [1], 39.9 ± 2.8% in assay [2] and 46.6 ± 2% in assay [3] (setting [4]).
